Results from patent US20240092739A1, “COMPOUNDS AND METHODS OF USE” (Ferro Therapeutics, Inc, priority 2020, published 2024).
Read-outs that look alike come from different tables or passages of the source.

Tests used:
[1] = test system: 786-O (renal cell carcinoma) cells; assay: Cell proliferation (Alamar Blue) assay, 786-O cells; type: cell-based; settings: Homo sapiens, 786-0, 786-O cells, Alamar Blue
Description: (§1) Cell viability assay was performed to assess the potency of the compounds in human cancer cell lines 786-0 (renal cell carcinoma) and SJSA-1 (osteosarcoma). Additional cell lines, such as pancreatic cancer cell lines (Panc 02.13, BxPC-3, Panc 12, Panc 02.03, Panc 6.03, PSN-1, HPAC, and Capan-1), prostate cancer cell lines (PC-3, DU145, […], NCI-H660, 1PH1 LNCaP, BM-1604, and MDA PCa 2b), etc., can be tested in a similar method.
(§2) Cells (SJSA-1, 786-0 and A431) were seeded (5000 cells/100 μL/well) in 96-well tissue culture plate and incubated at 37° C./500 CO2 for 16-24 hours. The cells were then treated with compounds (25 μL of 5×). The compound concentrations were 10-0.0005 μM prepared in 3-fold serial dilutions with final DMSO concentration of 1%. The plates were then incubated for 24 h at 37° C./[…] in a moist environment. Then Alamar Blue™ reagent (final concentration 1×-12.5 μL) was added to each well and incubated for 1.5 hours at 37° C./500 CO2. The plates were read on fluorescence reader at 540 nm excitation and 590 nm emission wavelengths. The IC50 values were subsequently determined using a sigmoidal dose-response curve (variable slope) in GraphPad Prism® 5 software. Tables A-3 and B-11 show cell proliferation data for exemplary compounds as described herein.

[2] = test system: 786-O cells + Ferrastatin-1; assay: GPX4 inhibition assay: cell proliferation (Alamar Blue) in 786-O cells with ferrostatin rescue; type: cell-based, human
Description: as §2
Studies have shown that lipophilic antioxidants, such as ferrostatin, can rescue cells from GPX4 inhibition-induced ferroptosis. For instance, mesenchymal state GPX4-knockout cells can survive in the presence of ferrostatin, however, when the supply of ferrostatin is terminated, these cells undergo ferroptosis (see, e.g., Viswanathan et al., Nature 547:453-7, 2017). […] Accordingly, the ability of a molecule to induce ferroptotic cancer cell death, and that such ability is admonished by the addition of ferrostatin, is clear indication that the molecule is an GPX4 inhibitor. Cell proliferation data for exemplary compounds with and without ferrostatin can be seen in Table A-3.

A431 cells = assay: Cell proliferation (Alamar Blue) assay, A431 cells; type: cell-based; settings: Homo sapiens, A-431, A431 cells, Alamar Blue
Description: as §1, §2

[3] = 24 h compound incubation, read-out: Cell proliferation IC50 (μM) 786-O
[4] = 786-O cells with Ferrastatin-1 (rescue), read-out: Cell proliferation IC50 (μM) 786-O + Ferrastatin-1
[5] = 24 h compound incubation, read-out: Cell proliferation IC50 (μM) A431
[6] = 24 h compound treatment, read-out: IC50 (μM) 786-O
[7] = 786-O cells in presence of Ferrastatin-1 (rescue), read-out: IC50 (μM) 786-O + Ferrastatin-1
[8] = 24 h compound treatment, read-out: IC50 (μM) A431

Row | SMILES | IC50 [1, 6] [µM] | IC50 [2, 7] [µM] | IC50 (A431 cells; [8]) [µM] | IC50 [1, 3] [µM] | IC50 [2, 4] [µM] | IC50 (A431 cells; [5]) [µM]
1 | CCCC[C@H]1Cc2cc(OC)ccc2[C@H](c2ccc(NC3CC(F)(F)C3)cc2)N1C(=O)C#C[Si](C)(C)C [Compound A-11, 1-((1S,3S)-3-butyl-1-(4-((3,3-difluorocyclobutyl)amino)phenyl)-6-methoxy-3,4-dihydroisoquinolin-2(1H)-yl)-3-(trimethylsilyl)prop-2-yn-1-one] | – | – | – | 0.109 | > 1 | > 1
2 | CCCC[C@H]1Cc2cc(OC)ccc2[C@H](c2ccc(NC34CC5CC(CC(C5)C3)C4)cc2)N1C(=O)C#C[Si](C)(C)C [Compound A-6, 1-((1S,3S)-1-(4-(((1s,3R)-adamantan-1-yl)amino)phenyl)-3-butyl-6-methoxy-3,4-dihydroisoquinolin-2(1H)-yl)-3-(trimethylsilyl)prop-2-yn-1-one] | – | – | – | 0.021 | > 1 | > 1
3 | CCCC[C@H]1Cc2cc(OC)ccc2[C@H](c2ccc(NC34CC5CC(CC(C5)C3)C4)cc2)N1C(=O)C#C[Si](C)(C)CCCOC(C)=O [Compound A-41] | – | – | – | 0.0125 | 1.86 | 0.563
4 | CCCC[C@H]1Cc2cc(OC)ccc2[C@H](c2ccc(NC34CC5CC(C3)CC(OC(=O)[C@@H](N)C(C)C)(C5)C4)cc2)N1C(=O)C#C[Si](C)(C)C [Compound A-45] | – | – | – | 0.0177 | 2.04 | 1.7
5 | COC[C@H]1Cc2cc(OC)ccc2[C@@H](c2ccc(NC34CC5CC(CC(C5)C3)C4)cc2)N1C(=O)C#C[Si](C)(C)C [Compound A-5] | – | – | – | 0.039 | > 1 | > 1
6 | CCCC[C@H]1Cc2cc(OC)ccc2[C@H](c2ccc(NC34CC5CC(CC(O)(C5)C3)C4)cc2)N1C(=O)C#C[Si](C)(C)C [Compound A-47] | – | – | – | 0.049 | 2.33 | 1.63
7 | CCCC[C@H]1Cc2cc(OCCO)ccc2[C@H](c2ccc(NC34CC5CC(CC(C5)C3)C4)cc2)N1C(=O)C#C[Si](C)(C)C [Compound A-44] | – | – | – | 0.0053 | 2.82 | 2.24

Continued, in another order:

Row | IC50 [1, 6] [µM] | IC50 [2, 7] [µM] | IC50 (A431 cells; [8]) [µM] | SMILES | IC50 [1, 3] [µM] | IC50 [2, 4] [µM] | IC50 (A431 cells; [5]) [µM]
8 | 0.037 | 0.056 | 0.881 | C#CC(=O)N1[C@@H](CCCC)Cc2cc(OC)ccc2[C@@H]1c1ccc(NC23CC4CC(CC(C4)C2)C3)c(F)c1 [Compound B-84] | – | – | –
9 | 0.017 | 1 | 7 | C#CC(=O)N1[C@@H](CCCC)Cc2cc(OC(F)(F)F)ccc2[C@@H]1c1ccc(NC23CC4CC(CC(C4)C2)C3)cc1 [Compound B-79] | – | – | –
10 | 0.052 | 5.84 | 2.37 | C#CC(=O)N1[C@@H](CCCC)Cc2cc(OC)ccc2[C@@H]1c1ccc(NC2CCC2)c(Cl)c1 [Compound B-59] | – | – | –
11 | 0.005 | 1.19 | 1.13 | C#CC(=O)N1[C@@H](CCCC)Cc2cc(OC)ncc2[C@@H]1c1ccc(NC23CC4CC(CC(C4)C2)C3)cc1 [Compound B-67] | – | – | –
12 | 0.066 | 1.71 | 1.18 | C#CC(=O)N1[C@@H](CC(C)C)Cc2cc(OC)ccc2[C@@H]1c1ccc(NC23CC4CC(CC(C4)C2)C3)cc1 [Compound B-71] | – | – | –
13 | 0.046 | ≥ 10 | ≥ 10 | C#CC(=O)N1[C@@H](CCCC)Cc2cc(CCC(=O)O)ccc2[C@@H]1c1ccc(NC23CC4CC(CC(C4)C2)C3)cc1 [Compound B-55] | – | – | –
14 | 0.042 | 2.61 | 2.35 | C#CC(=O)N1[C@@H](CCCC)Cc2cc(OC)ncc2[C@H]1c1ccc(NC23CC4CC(CC(C4)C2)C3)cc1 [Compound B-68] | – | – | –
15 | 0.012 | 1.28 | 3.54 | C#CC(=O)N1[C@@H](CCCC)Cc2cc(C(N)=O)ccc2[C@@H]1c1ccc(NC23CC4CC(CC(C4)C2)C3)cc1 [Compound B-61] | – | – | –
16 | 0.024 | 1.71 | 1.84 | C#CC(=O)N1[C@@H](CCCC)Cc2cc(OC)ccc2[C@@H]1c1cc(F)c(NC23CC4CC(CC(C4)C2)C3)c(F)c1 [Compound B-82] | – | – | –
17 | 0.005 | 2.18 | 2.12 | C#CC(=O)N1[C@@H](CCCC)Cc2cc(OCCO)ccc2[C@@H]1c1ccc(NC23CC4CC(CC(C4)C2)C3)cc1 [Compound B-60] | – | – | –
